{"source": "patent US7741023B2", "about": "“Method for predicting immune response to neoplastic disease based on mRNA expression profile in neoplastic cells and stimulated leukocytes” (Hitachi Chemical Co., Ltd., priority 2005, dated 2010)", "system": "TNF superfamily subtype 3 mRNA", "assay": "effect of dietary components on HAG-induced TNF superfamily subtype 3 mRNA in whole blood", "format": "cell-based, human", "conditions": "100 nM, pre-incubation 37° C. 1 hour, then HAG; one individual, FIG. 10", "description": "Triplicate aliquots of 50 μL each of heparinized whole blood was incubated with 200 μg/mL HAG at 37° C. for 2 hours. Then blood samples were applied to 96-well filterplates to trap leukocytes, and cell lysates were transferred to 96-well oligo(dT)-immobilized microplates for isolation of poly(A)^+ mRNA as described above. cDNA was synthesized on the microplates and was used for real-time polymerase chain reaction (PCR) in 384-well plates by monitoring SYBR Green fluorescence (see Morrison et al., Quantification of low-copy transcripts by continuous SYBR Green I monitoring during amplification. Biotechniques 1998; 24:954-8, 960, 96). […] The Ct was determined by analytical software (SDS, ABI). The PCR conditions were carefully optimized, so that a single appropriate peak was detected on melting curve analysis without any primer dimers. To validate the assay conditions, synthetic RNA34 was spiked into the lysis buffer, and this RNA34 was also quantitated by real time PCR. […] The Ct was set equal to the PCR cycle where certain amounts of PCR products were generated, and delta Ct (ΔCt) was also calculated by subtracting the Ct values of the un-stimulated samples from those of the stimulated samples. Since Ct is a log scale, 1 ΔCt means double or one half in quantity, and a negative ΔCt indicates an increase in expression. […]", "data": [{"smiles": "O=c1c(O)c(-c2ccc(O)c(O)c2)oc2cc(O)cc(O)c12", "note": "[quercetin]", "values": [{"measurement": "HAG-induced TNF superfamily subtype 3 expression in blood pre-exposed to dietary component", "value": "significant (p=0.03) induction"}]}]}
